Measured values: PubChem BioAssay AID1259411 (Chemical Carcinogenesis Research Information System (CCRIS), 2018)
The source made the active and inactive calls. No rule for the calls is given here.

Tested on: rodent carcinogenicity bioassays, tumor incidence
Test: CCRIS carcinogenicity studies
Outline: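 Archive of carcinogenicity, mutagenicity, tumor promotion and tumor inhibition results drawn from journals, NCI reports and other sources, expert-reviewed; covers 1985-2011 and is no longer updated.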

Compound: Cc1c2ccccc2c(C)c2c3c(ccc12)[C@H](O)[C@@H](O)C=C3
- carcinogen call (Species: RAT, Strain/Sex: SPRAGUE-DAWLEY/FEMALE (8/GROUP), Route: SUBCUTANEOUS, Dose: 0.1 UMOL 3X A WK FOR 20 DOSES (STUDY DURATION: 38 WK), Tumor Site: Type of Lesion: MAMMARY: ADENOCARCINOMA): active; positive (100%); no tumors at injection site
- carcinogen call (Species: RAT, Strain/Sex: SPRAGUE-DAWLEY/FEMALE (8/GROUP), Route: SUBCUTANEOUS, Dose: 0.2 UMOL 3X A WK FOR 20 DOSES (STUDY DURATION: 30 WK), Tumor Site: Type of Lesion: MAMMARY: ADENOCARCINOMA): active; positive (100%); no tumors at injection site

Compound: CC1=CC(C)(C)N(N=O)c2ccccc21
- carcinogen call (Species: RAT, Strain/Sex: CB/MALE, Route: INTRAPERITONEAL, Dose: 0, 25 MG IN POLYETHYLENE GLYCOL 400 1/WK FOR 6 MO FOR A TOTAL DOSE OF 0, 650 MG (STUDY DURATION: 24 MO), Dose: 0, 25 MG IN POLYETHYLENE GLYCOL 400 1/WK FOR 6 MO FOR A TOTAL DOSE OF 0, 650 MG (STUDY DURATION: 24 MO), Tumor Site: Type of Lesion: PERITONEUM: SARCOMA): active; positive

Compound: N#Cc1cc(Br)c(O)c(Br)c1
- carcinogen call (Species: Mouse, Strain/Sex: Crl:CD-1 (ICR)BR VAF/Plus/Female (60/sex/group), Route: Oral, Dose: 0, 20, 75, 300 ppm in feed for 78-80 wk, Dose: 0, 20, 75, 300 ppm in feed for 78-80 wk, Tumor Site: Type of Lesion: Liver: Hepatocellular adenoma and carcinoma combined (0 ppm, 2/60; 300 ppm, 7/59)): active; positive at high dose only; purity 94.4%
- carcinogen call (Species: Mouse, Strain/Sex: Crl:CD-1 (ICR)BR VAF/Plus/Male (60/sex/group), Route: Oral, Dose: 0, 20, 75, 300 ppm in feed for 78-80 wk, Dose: 0, 20, 75, 300 ppm in feed for 78-80 wk, Tumor Site: Type of Lesion: Liver: Hepatocellular adenoma and carcinoma combined (5/60; 16/60; 12/60; 23/60)): active; positive; purity 94.4%

Compound: COc1ccc([N+](=O)[O-])cc1N
- carcinogen call (Species: MOUSE, Strain/Sex: B6C3F1/FEMALE, Route: ORAL, Dose: 0, 0.8% IN DIET FOR 78 WK (STUDY DURATION: 97 WK)): inactive; negative
- carcinogen call (Species: MOUSE, Strain/Sex: B6C3F1/FEMALE, Route: ORAL, Dose: 0, 1.6% IN DIET FOR 15 WK FOLLOWING BY 0.4% FOR LAST 63 WK (STUDY DURATION: 97 WK), Tumor Site: Type of Lesion: LIVER: HEPATOCELLULAR CARCINOMA): active; positive
- carcinogen call (Species: MOUSE, Strain/Sex: B6C3F1/MALE, Route: ORAL, Dose: 0, 0.8% IN DIET FOR 78 WK (STUDY DURATION: 97 WK), Tumor Site: Type of Lesion: LIVER: HEPATOCELLULAR CARCINOMA): equivocal
- carcinogen call (Species: MOUSE, Strain/Sex: B6C3F1/MALE, Route: ORAL, Dose: 0, 1.6% IN DIET FOR FIRST 15 WK FOLLOWING BY 0.4% FOR 63 WK (STUDY DURATION: 97 WK)): inactive; negative
- carcinogen call (Species: RAT, Strain/Sex: F344/FEMALE, Route: ORAL, Dose: 0, 0.4, 0.8% IN DIET FOR 78 WK (STUDY DURATION: 106-108 WK), Dose: 0, 0.4, 0.8% IN DIET FOR 78 WK (STUDY DURATION: 106-108 WK), Tumor Site: Type of Lesion: CLITORAL GLAND: CARCINOMA (NOS), CARCINOMA (NOS) OR SQUAMOUS CELL CARCINOMA, ADENOMA (NOS) OR PAPILLARY ADENOMA OR CARCI): active; positive
- carcinogen call (Species: RAT, Strain/Sex: F344/MALE, Route: ORAL, Dose: 0, 0.4, 0.8% IN DIET FOR 78 WK (STUDY DURATION: 102-109 WK), Dose: 0, 0.4, 0.8% IN DIET FOR 78 WK (STUDY DURATION: 102-109 WK), Tumor Site: Type of Lesion: INTEGUMENTARY SYSTEM (SKIN): BASAL CELL CARCINOMA, TRICHOEPITHELIOMA;INTEGUMENTARY SYSTEM (EXCLUDING SKIN OF EAR): SQUAM): active; positive

Compound: COc1ccccc1[N+](=O)[O-]
- carcinogen call (Species: MOUSE, Strain/Sex: B6C3F1/MALE, Route: ORAL, Dose: 0, 666, 2000, 6000 PPM IN DIET FOR 103 WK (STUDY DURATION: 103 WK), Dose: 0, 666, 2000, 6000 PPM IN DIET FOR 103 WK (STUDY DURATION: 103 WK), Tumor Site: Type of Lesion: LIVER: HEPATOBLASTOMA, HEPATOCELLULAR ADENOMA): active; positive
- carcinogen call (Species: RAT, Strain/Sex: F344/N/FEMALE, Route: ORAL, Dose: 0, 222, 666, 2000 PPM IN DIET FOR 103 WK (STUDY DURATION: 103 WK), Dose: 0, 222, 666, 2000 PPM IN DIET FOR 103 WK (STUDY DURATION: 103 WK)): inactive; negative
- carcinogen call (Species: RAT, Strain/Sex: F344/N/FEMALE, Route: ORAL, Dose: 0, 6000, 18,000 PPM IN DIET FOR 27 WK (STUDY DURATION: 104 WK), Dose: 0, 6000, 18,000 PPM IN DIET FOR 27 WK (STUDY DURATION: 104 WK), Tumor Site: Type of Lesion: COLON: ADENOMATOUS POLYP, URINARY BLADDER: CARCINOMA, SARCOMA): active; positive
- carcinogen call (Species: RAT, Strain/Sex: F344/N/MALE, Route: ORAL, Dose: 0, 222, 666, 2000 PPM IN DIET FOR 103 WK (STUDY DURATION: 103 WK), Dose: 0, 222, 666, 2000 PPM IN DIET FOR 103 WK (STUDY DURATION: 103 WK)): inactive; negative
- carcinogen call (Species: RAT, Strain/Sex: F344/N/MALE, Route: ORAL, Dose: 0, 6000, 18,000 PPM IN DIET FOR 27 WK (STUDY DURATION: 104 WK), Dose: 0, 6000, 18,000 PPM IN DIET FOR 27 WK (STUDY DURATION: 104 WK), Tumor Site: Type of Lesion: COLON: ADENOMATOUS POLYP, KIDNEY: CARCINOMA, URINARY BLADDER: CARCINOMA, SARCOMA, Tumor Site: Type of Lesion: COLON: ADENOMATOUS POLYP, KIDNEY: CARCINOMA, URINARY BLADDER: CARCINOMA, SARCOMA): active; positive

Compound: CCCCC(CC)COC(=O)CCCCC(=O)OCC(CC)CCCC (stereo unspecified)
- carcinogen call (Species: MOUSE, Strain/Sex: B6C3F1/FEMALE, Route: ORAL, Dose: 0, 12000, 25000 PPM IN DIET FOR 102-104 WK (STUDY DURATION: 102-104 WK), Dose: 0, 12000, 25000 PPM IN DIET FOR 102-104 WK (STUDY DURATION: 102-104 WK), Tumor Site: Type of Lesion: LIVER: CARCINOMA, CARCINOMA OR ADENOMA): active; positive
- carcinogen call (Species: MOUSE, Strain/Sex: B6C3F1/FEMALE, Route: ORAL, Dose: 0, 12000, 25000 PPM IN DIET FOR 103 WK (STUDY DURATION: 105-106 WK), Dose: 0, 12000, 25000 PPM IN DIET FOR 103 WK (STUDY DURATION: 105-106 WK), Tumor Site: Type of Lesion: LIVER: HEPATOCELLULAR CARCINOMA): active; positive
- carcinogen call (Species: MOUSE, Strain/Sex: B6C3F1/MALE, Route: ORAL, Dose: 0, 12000, 25000 PPM IN DIET FOR 102-104 WK (STUDY DURATION: 102-104 WK), Dose: 0, 12000, 25000 PPM IN DIET FOR 102-104 WK (STUDY DURATION: 102-104 WK), Tumor Site: Type of Lesion: LIVER: CARCINOMA OR ADENOMA): active; positive
- carcinogen call (Species: MOUSE, Strain/Sex: B6C3F1/MALE, Route: ORAL, Dose: 0, 12000, 25000 PPM IN DIET FOR 103 WK (STUDY DURATION: 104-106 WK), Dose: 0, 12000, 25000 PPM IN DIET FOR 103 WK (STUDY DURATION: 104-106 WK), Tumor Site: Type of Lesion: LIVER: HEPATOCELLULAR CARCINOMA, HEPATOCELLULAR ADENOMA OR CARCINOMA): active; positive
- carcinogen call (Species: RAT, Strain/Sex: F344/FEMALE, Route: ORAL, Dose: 0, 12000, 25000 PPM IN DIET FOR 102-104 WK (STUDY DURATION: 102-104 WK), Dose: 0, 12000, 25000 PPM IN DIET FOR 102-104 WK (STUDY DURATION: 102-104 WK)): inactive; negative
- carcinogen call (Species: RAT, Strain/Sex: F344/FEMALE, Route: ORAL, Dose: 0, 12000, 25000 PPM IN DIET FOR 103 WK (STUDY DURATION: 104-107 WK), Dose: 0, 12000, 25000 PPM IN DIET FOR 103 WK (STUDY DURATION: 104-107 WK)): inactive; negative
- carcinogen call (Species: RAT, Strain/Sex: F344/MALE, Route: ORAL, Dose: 0, 12000, 25000 PPM IN DIET FOR 102-104 WK (STUDY DURATION: 102-104 WK), Dose: 0, 12000, 25000 PPM IN DIET FOR 102-104 WK (STUDY DURATION: 102-104 WK)): inactive; negative
- carcinogen call (Species: RAT, Strain/Sex: F344/MALE, Route: ORAL, Dose: 0, 12000, 25000 PPM IN DIET FOR 103 WK (STUDY DURATION: 104-107 WK), Dose: 0, 12000, 25000 PPM IN DIET FOR 103 WK (STUDY DURATION: 104-107 WK)): inactive; negative

Compound: CCN(CC)c1ccc2c(-c3ccc(S(=O)(=O)O)cc3S(=O)(=O)[O-])c3ccc(=[N+](CC)CC)cc-3oc2c1
- carcinogen call (Species: RAT, Strain/Sex: F344/FEMALE, Route: ORAL, Dose: 0, 2.5, 5% IN DIET FOR 106 WK (STUDY DURATION: 106 WK), Dose: 0, 2.5, 5% IN DIET FOR 106 WK (STUDY DURATION: 106 WK)): inactive; negative
- carcinogen call (Species: RAT, Strain/Sex: F344/MALE, Route: ORAL, Dose: 0, 2.5, 5% IN DIET FOR 106 WK (STUDY DURATION: 106 WK), Dose: 0, 2.5, 5% IN DIET FOR 106 WK (STUDY DURATION: 106 WK)): inactive; negative
